According to US10308617B2, “Triazole benzamide derivatives and the compositions and methods of treatment regarding the same” (An2H Discovery Limited, priority 2016, dated 2019):

Assays:
[1] = Microsomal Stability Assay, rat liver microsomes; format: in vitro ADME; conditions: for half-life at 1 μM: rat, liver microsomes, pH 7.4, 1 μM compound, 1.0 mg/mL microsome, NADPH, read-out: RLM t1/2
Experimental: Compounds were also tested for metabolic stability in both rat liver microsomes (RLM) and human liver microsomes (HLM) and their half-life calculated (See Table 5). The assay was performed as follows. The total volume for each incubation was 250 μL. A 100 μM DMSO solution of compound (diluted from 10 mM stock solution) was spiked into 50 mM KH2PO4 (pH 7.4) buffer containing liver microsome at a concentration of 1.0 mg/mL. The reaction was initiated by the addition of 50 μL of 1 mM NADPH. The final concentration of each compound was 1 μM (1% DMSO). The positive controls, phenacetin for CYP1A2, diclofenac for CYP2C9, omeprazole for CYP2C19, dextromethorphan for CYP2D6 and midazolam for CYP3A4 were added to a separate tube with the final substrate concentrations of 1 μM (1% DMSO) for evaluating the enzyme activities in the liver microsomes. At 0, 15, 30 and 60 min, an aliquot of 15 μL reaction mixtures were removed and 200 μL of methanol (with internal standard of 25 ng/mL propranolol) was added to quench the reaction. The resulting mixture was centrifuged and supernatant was used for LC-MS/MS analysis.
The signals for each compound, or the metabolites for the probe substrates and the internal standard were integrated and the peak area ratios to internal standard were generated. Percent parent remaining at a specified timepoint was calculated based on the peak area ratios at time 0 (as 100%) for in vitro metabolic stability studies in liver microsome and hepatocyte. The observed rate constant (kobs) for the metabolism of substrates was calculated by plotting the natural log of percentage substrate remaining versus time of incubation with the slope being kobs. The half-life (T1/2) was calculated according to the following equation: T1/2=0.693/kobs

Parkin = Parkin (Homo sapiens, UniProt O60260); test: Parkin pUB Auto-ubiquitinylation Assay (TR-FRET); format: biochemical; conditions: for EC50: Parkin activation, pUb activated Parkin, read-out: Auto-ubiq EC50 (μM) [Example 3]
Text: A Parkin pUB Auto-ubiquitinylation Assay is used to evaluate a compound's potency to activate Parkin's ability to Auto-ubiquitinylate itself.
The principle of this assay is that the E3 Ligase Parkin catalyzes the transfer of Ubiquitin to target proteins, but also has the ability to auto-ubiquitinylate itself. The phospho-Ubiquition (pUb) added to the assay alters the Parkin to a state where small molecule activators can enable the Parkin to auto-ubiquitinylate though the E1-E2 cascade reaction. The use of a Eu cryptate Ubiquition and anti 6His-d2 that binds to the His tagged Parkin will give a signal when the Eu cryptate Ubiquition is auto-ubiquitinylate onto the Parkin which can be monitored by TR-FRET.
Similar to the Activity-based probe assay in Example 2, screening for activating compounds can be distinguished from the controls as follows: • 100% activation signal=pUb activated Parkin+40 nM control activator in DMSO. • 0% activation signal=pUb activated Parkin+DMSO only. • Parkin activators can be identified by an increase of the 0% activation signal TR-FRET signal. Materials: • Assay Plate: White 384 well plate (Corning 3572) • Enzyme 1: E1 (Ubiquitin-activating enzyme/UBE1 Boston Biochem E-305) • Enzyme 2: E2 (UBcH7/Ube2L3 Boston Biochem E2-640) • Enzyme 3: Parkin-His tagged 203 μM (10.5 mg/ml) • pUb: Phospho-Ubiquitin (S65) (Boston Biochem U-102) • Eu Cryptate Reagent: Ubiquitin Eu (CisBio 61UBIKLA) • DMSO: DMSO (Sigma-34869-2.5L) • Reaction Buffer: 50 mM HEPES, 50 mM NaCl, 1 mM MgCl2, 0.005% Tween 20, 0.1% PF-127 (Fisher Scientific 50-310-494), pH 8.5 • Detection Buffer: 50 mM HEPES, 50 mM NaCl, 800 mM KF, 5 mM EDTA, 0.005% Tween 20, 0.1% PF-127, pH 8.5 • Detection Reagent Z: 13.4 nM Anti-6His-d2 in detection buffer • d2 Reagent: Anti-6His-d2 (CisBio 61HISDLA)
Enzyme Reaction (15 min pre-incubation with Parkin, pUb and activator only) • Parkin: 196 nM • pUb: 196 nM • DMSO: 1% DMSO • E1: 5 nM • E2: 50 nM • Ubiquitin Eu: 8.8 nM • Reaction time: 120 minutes • Temperature: 22° C. • Total volume: 10 μl reaction
Take 10 μl of Enzyme Reaction above and add 10 μl detection Reagent Z under the following conditions:
Assay Procedure: • 1) Load assay plate wells with 4.9 μl 400.0 nM Parkin, 400 nM pUb in reaction buffer by use of Eppendorf 12-channel pipette. • 2) Deliver 0.1 μl 100× activator candidates in DMSO by use of Echo 555 compound dispenser. Highest 100× concentration=100 μm and then twofold dilutions. Add each compound and control in duplicate wells. • 3) Spin 1000 rpm, 2 minutes, at room temp. • 4) Incubate plate for 15 minutes at room temp. • 5) Add 5 μl 10 nM E1, 100 nM E2, 17.6 nM Ubiquitin Eu and 2 mM ATP in Reaction Buffer by use of Eppendorf 12-channel pipette. • 6) Spin 1000 rpm, 2 minutes, at room temp. • 7) Incubate plate for 120 minutes at room temp. • 8) Add 10 μl 13.4 nM anti his d2 in detection buffer by use of Eppendorf 12-channel pipette. • 9) Spin 1000 rpm, 2 minutes, at room temp. • 10) Incubate plate for 120 minutes at room temp. • 11) Read plates on Perkin Elmer Envision instrument with the following parameters: • LANCE dual laser protocol loaded into the Envision® software • Top Mirror: LANCE/DELFIA Duel/Bias (Bar code 446) • Emission Filter: APC 665 EM (Bar code 205) • 2nd Emission Filter: Europium 615 EM (Bar code 203) • Read 655 nm (channel 1) and 615 nm (channel 2) wavelengths on Envision®
Data Analysis: The Data can be read in CSV files. There are two tables in those CSV files, which are the values of 655 nm (channel 1) and 615 nm (channel 2) wavelengths respectively. The data is converted to an HTRF Ratio=(Channel 1/Channel 2)*10,000
The average of all the 0 uM controls (DMSO only)=BKGD (Background—0% activation). Subtract BKGD from each HTRF Ratio value=HTRF-BKGD. The average of all the […] control activator in DMSO controls=Max (100% activation). The following equation is then used to calculate % Activation for each well/candidate as follows: % Activation=(HTRF-BKGD/Max)*100. […]

Parkin, sequence (O60260 whole entry, other chains not shown): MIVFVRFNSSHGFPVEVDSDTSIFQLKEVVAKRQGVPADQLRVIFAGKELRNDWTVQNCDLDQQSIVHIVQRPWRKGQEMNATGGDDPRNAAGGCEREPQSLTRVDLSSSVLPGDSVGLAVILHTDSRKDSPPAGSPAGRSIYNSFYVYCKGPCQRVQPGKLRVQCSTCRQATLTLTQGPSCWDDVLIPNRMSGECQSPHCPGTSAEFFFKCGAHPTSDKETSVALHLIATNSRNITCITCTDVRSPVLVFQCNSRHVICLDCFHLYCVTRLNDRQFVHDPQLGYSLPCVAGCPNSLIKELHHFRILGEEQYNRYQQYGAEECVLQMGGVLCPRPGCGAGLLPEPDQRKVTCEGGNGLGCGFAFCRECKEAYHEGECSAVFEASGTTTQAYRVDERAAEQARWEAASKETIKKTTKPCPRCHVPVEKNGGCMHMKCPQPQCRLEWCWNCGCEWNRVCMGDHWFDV

Structure (SMILES) | half-life at 1 μM [1] | EC50 (Parkin) | In vitro RLM ([1]; as repeated in the PK tables) | Parkin activity in an auto-ubiquitination assay (Parkin) | In vitro RLM (min) ([1]; as repeated in the PK tables)
O=C(Nc1nc(NC(=O)c2cc3ccccc3s2)n(-c2ccccc2)n1)c1ccccc1 [Compound A2] | 36 min | > 40 µM |  |  | 
O=C(/C=C/c1ccccc1)Nc1nc(NC(=O)c2ccccc2)nn1-c1ccccn1 [Compound U1] | 10.5 min | > 40 µM |  |  | 
Cc1ccccc1C(=O)Nc1nc(NC(=O)/C=C/c2ccccc2)n(-c2ccccc2)n1 [Compound C2] | 12 min | > 40 µM |  |  | 
O=C(Nc1nc(NC(=O)c2ccc3ccccc3n2)n(-c2ccccc2)n1)c1ccccc1 [Compound B2] | 2 min | > 40 µM |  |  | 
O=C(Nc1nc(NC(=O)c2ccccc2)n(-c2ccc3ncccc3c2)n1)c1ccccc1 [Compound J2] | 50 min | > 40 µM |  |  | 
O=C(Nc1nc(-c2ccccn2)nn1-c1ccccc1)c1ccccc1 [Compound Y1, N-(1-phenyl-3-(pyridin-2-yl)-1H-1,2,4-triazol-5-yl)benzamide] | < 1 min | > 40 µM |  |  | 
O=C(Nc1nc(NC(=O)c2ccco2)n(-c2ccccc2)n1)c1ccccc1 [Compound W1] | 110 min | > 40 µM |  |  | 
O=C(Nc1nc(NC(=O)c2ccccc2)n(-c2ccccc2)n1)c1ccccc1 [Compound A, N,N′-(1-phenyl-1H-1,2,4-triazole-3,5-diyl)dibenzamide] | 20.6 min | 2.3 µM |  | increases | 
c1ccc(-n2nc(-c3ccccn3)nc2Nc2ncnc3ccccc23)cc1 [Compound U2] | 126 min | > 40 µM |  |  | 
Cc1ccccc1C(=O)Nc1nc(NC(=O)c2ccccc2C)n(-c2ccccc2)n1 [Compound F, 2-methyl-N-[5-[(2-methylbenzoyl)amino]-1-phenyl-1,2,4-triazol-3-yl]benzamide] | 630 min | > 40 µM |  |  | Stable

Further lines, results first:

half-life at 1 μM [1] | EC50 (Parkin) | In vitro RLM ([1]; as repeated in the PK tables) | Parkin activity in an auto-ubiquitination assay (Parkin) | In vitro RLM (min) ([1]; as repeated in the PK tables) | Structure (SMILES)
29 min | > 40 µM |  |  |  | Cc1ccccc1C(=O)Nc1nc(NC(=O)c2cccs2)nn1-c1ccccc1 [Compound K2]
76 min | > 40 µM |  |  |  | Cc1ccccc1C(=O)Nc1nc(-c2ccccn2)nn1-c1ccccc1 [Compound Q2]
3 min | > 40 µM |  |  |  | O=C(Nc1nc(NC(=O)c2ccccc2)n(-c2ccc3c(c2)OCCO3)n1)c1ccccc1 [Compound E2]
45 min | > 40 µM |  |  |  | O=C(Nc1nc(Nc2ncnc3ccccc23)n(-c2ccccc2)n1)c1ccco1 [Z]
59.2 min | > 40 µM |  |  |  | O=C(Nc1nc(Nc2ncnc3ccccc23)n(-c2ccccc2)n1)c1ccccc1 [Compound L, N-[1-phenyl-5-(quinazolin-4-ylamino)-1,2,4-triazol-3-yl]benzamide]
77 min | > 40 µM |  |  |  | Cc1ccccc1C(=O)Nc1nc(Nc2ncnc3ccccc23)n(-c2ccccc2)n1 [Compound R2]
14.1 min | > 40 µM | 14.1 min | increases |  | O=C(/C=C/c1ccccc1)Nc1nc(NC(=O)c2ccccc2)nn1-c1ccccc1 [Compound C, N-(5-cinnamamido-1-phenyl-1H-1,2,4-triazol-3-yl)benzamide]
